Experimental data reported in US9937163B2, “Remedy for psychoneurotic diseases” (National University Corporation Chiba University, priority 2004, dated 2018).
Marks after values point to notes of the source that are not given here.

Test system: P50 auditory evoked potential in schizophrenic patients
Experiment: P50 auditory evoked potential in schizophrenic patients before and 1 h after administration of tropisetron
Format: in vivo, human
Experimental: Twenty-two patients with schizophrenia (14 males and 8 females, average age: 39.8 years old (standard deviation 14.0), age range: 18-60 years old) were selected as subjects. The subjects were diagnosed by psychiatrists on the basis of DSM-IV criteria. Psychiatric symptoms and cognitive functions of the subjects were evaluated using Brief Psychiatric Rating Scale (BPRS), Global Assessment of Functioning (GAF), Mini-Mental State Examination (MMSE) and Wechsler Adult Intelligence Scale-Revised (WAIS-R).
First, a baseline P50 auditory evoked potential of a subject was measured (conditioning P50), then the P50 was measured 1 h after administration of 10 mg of tropisetron (test P50). P50 is a positive brain wave which appears approximately 50 m seconds after an auditory stimulus. Consecutive click sounds with an interval of 500 m seconds (conditioning stimulus and test stimulus) at 70 dB were presented every 10 seconds for 120 times, and the brain wave measured at the parietal region was summed to identify P50. The resistance of an electrode was set at 10 kW or less, and the brain wave exceeding ±70 mV was omitted as artifact. The largest positive wave between 40 ms and 90 ms after the conditioning stimulus was designated to be the conditioning P50, and the positive wave after the test stimulus whose latency is the closest to that of the conditioning P50 was designated to be the test P50. The amplitude of P50 was defined as the difference between the positive peak and the preceding negative trough. The P50 ratio was defined as the amplitude of the test P50 divided by the amplitude of the conditioning P50.
Data were expressed as average±standard deviation. The statistical analysis between two groups was performed using Student's t-test. The relationship between variables was confirmed by Pearson's product-moment correlation coefficient. p Values of 0.05 or less were designated to be statistically significant.

[1] = 1 h after administration of 10 mg tropisetron, 19 subjects with baseline P50 ratio larger than 0.5

CN1[C@@H]2CC[C@H]1C[C@@H](OC(=O)c1c[nH]c3ccccc13)C2 [tropisetron, (1R,3r,5S)-8-methyl-8-azabicyclo[3.2.1]oct-3-yl 1H-indole-3-carboxylate]
Change in amplitude of conditioning P50 between before and after administration (10 mg tropisetron, 1 h, 19 subjects, t=0.79, df=18, p=0.44): no significant differences | Change in latency of conditioning P50 between before and after administration (10 mg tropisetron, 1 h, 19 subjects, t=1.05, df=18, p=0.31): no significant differences | Change in P50 ratio between before and after administration (10 mg tropisetron, 1 h, 19 subjects, t=2.32, df=18, p=0.033): significant decrease | Latency, conditioning P50, After, Mean [1]: 59.79 ms | Latency, test P50, After, Mean [1]: 59.16 ms | P50(T/C)ratio, After, Mean (1 h after administration of 10 mg tropisetron, 19 subjects with baseline P50 ratio larger than 0.5, amplitude of test P50 divided by amplitude of conditioning P50): 0.61* | Effect on cognitive dysfunction in schizophrenia (conclusion drawn from the decrease in P50 ratios in patients with schizophrenia): improves cognitive dysfunction in schizophrenia | Number of subjects in whom the P50 ratio improved to 0.5 or less (of 19 subjects with baseline P50 ratio larger than 0.5, after 10 mg tropisetron): four
